# Legend:
# dogs = conditions: previously established; cited from earlier work
# advanced solid tumors = assay: Tumor response by RECIST; format: in vivo, human
# Description: Patients with measurable disease at baseline were evaluated for tumor response according to the Response Evaluation Criteria for Solid Tumors (RECIST). Radiographic studies (CT scan or MRI) for disease assessment were conducted at baseline and every 2 cycles (8 weeks) thereafter. The best overall response was reported. Disease control rate was defined as the percentage of patients with complete response (CR), partial response (PR), and stable disease (SD) for at least 8 weeks. The duration of overall response was defined as the period from the initial measurement of complete response (CR) or partial response (PR), whichever occurred first, to the first date of documented disease recurrence or progression. The same method and techniques of assessment were used to characterize each identified and reported lesion at baseline and at subsequent evaluations.
structure (smiles),measurement,setting,value
N#CC1(c2ccc(NC(=O)c3cccnc3NCc3ccncc3)cc2)CCCC1 [apatinib],maximum-tolerated dose (MTD) in dogs,dogs,above 30 mg/kg
same,"CR, evaluable patients",advanced solid tumors; 250 mg cohort,0
same,Disease control (%) CR+PR+SD,advanced solid tumors; 250 mg cohort,66.7%
same,"Disease control CR+PR+SD, patients",advanced solid tumors; 250 mg cohort,2
same,"PD, evaluable patients",advanced solid tumors; 250 mg cohort,1
same,"PR, evaluable patients",advanced solid tumors; 250 mg cohort,1
same,"CR, evaluable patients",advanced solid tumors; 500 mg cohort,0
same,Disease control (%) CR+PR+SD,advanced solid tumors; 500 mg cohort,66.7%
same,"Disease control CR+PR+SD, patients",advanced solid tumors; 500 mg cohort,6
same,"PD, evaluable patients",advanced solid tumors; 500 mg cohort,3
same,"PR, evaluable patients",advanced solid tumors; 500 mg cohort,2
same,"CR, evaluable patients",advanced solid tumors; 750 mg cohort,0
same,Disease control (%) CR+PR+SD,advanced solid tumors; 750 mg cohort,100%
same,"Disease control CR+PR+SD, patients",advanced solid tumors; 750 mg cohort,11
same,"PD, evaluable patients",advanced solid tumors; 750 mg cohort,0
same,"PR, evaluable patients",advanced solid tumors; 750 mg cohort,2
same,"CR, evaluable patients",advanced solid tumors; 850 mg cohort,0
same,Disease control (%) CR+PR+SD,advanced solid tumors; 850 mg cohort,90.9%
same,"Disease control CR+PR+SD, patients",advanced solid tumors; 850 mg cohort,10
same,"PD, evaluable patients",advanced solid tumors; 850 mg cohort,1
same,"PR, evaluable patients",advanced solid tumors; 850 mg cohort,2
same,"CR, evaluable patients",advanced solid tumors; 1000 mg cohort,0
same,Disease control (%) CR+PR+SD,advanced solid tumors; 1000 mg cohort,66.7%
same,"Disease control CR+PR+SD, patients",advanced solid tumors; 1000 mg cohort,2
same,"PD, evaluable patients",advanced solid tumors; 1000 mg cohort,1
same,"PR, evaluable patients",advanced solid tumors; 1000 mg cohort,0
same,patients who achieved PR,advanced solid tumors; 22 assessable patients with gastric and colorectal cancer,4
same,Disease control rate,advanced solid tumors; 22 assessable patients with gastric and colorectal cancer (n = 18),81%
same,"CR, evaluable patients","advanced solid tumors; Total, n = 37",0
same,"Disease control CR+PR+SD, patients","advanced solid tumors; Total, n = 37",31
same,"PD, evaluable patients","advanced solid tumors; Total, n = 37",6
same,"Disease control (%) CR+PR+SD, disease control rate","advanced solid tumors; Total, n = 37, at 8 weeks",83.8%
same,Duration of PR,advanced solid tumors; one GIST patient who failed imatinib,24 months
same,"PR, % of evaluable patients",advanced solid tumors; thirty-seven evaluable patients,18.9%

# — PMC2984425, “Safety and pharmacokinetics of novel selective vascular endothelial growth factor receptor-2 inhibitor YN968D1 in patients with advanced malignancies” (BMC Cancer, 2010)
